Assay results from PubChem BioAssay AID212 (DTP/NCI, 2004).
Where “and” joins values, the source holds several entries; their conditions need not be identical. Equal entries are not always repeated. Results filed as inconclusive are left out.

Tested on: BDF1 mice, colon carcinoma 38 sc, T/C %
Test: NCI In Vivo Anticancer Drug Screen. Data for tumor model Colon Carcinoma 38 (subcutaneous) in B6D2F1 (BDF1) mice
Details: endpoint: median tumor weight (est.), higher = larger tumour
Outline: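 Mice with transplanted tumors are treated with compound or vehicle. Survival or tumor size is then measured in both groups. The ratio of treated to control gives the reported figure.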

[1] = dose: 25.0 mg/kg/injection, schedule: Q07DX002 (ip), vehicle: Klucel (hydroxypropylcellulose) (HPC)
[2] = dose: 50.0 mg/kg/injection, schedule: Q07DX002 (ip), vehicle: Klucel (hydroxypropylcellulose) (HPC)
[3] = dose: 50.0 mg/kg/injection, schedule: Q07DX002 (ip), vehicle: saline
[4] = dose: 100.0 mg/kg/injection, schedule: Q07DX002 (ip), vehicle: saline
[5] = dose: 200.0 mg/kg/injection, schedule: Q07DX002 (ip), vehicle: saline
[6] = dose: 400.0 mg/kg/injection, schedule: Q07DX002 (ip), vehicle: saline
[7] = dose: 100.0 mg/kg/injection, schedule: Q07DX002 (ip), vehicle: Klucel (hydroxypropylcellulose) (HPC)
[8] = dose: 200.0 mg/kg/injection, schedule: Q07DX002 (ip), vehicle: Klucel (hydroxypropylcellulose) (HPC)

Q: For CCOC(=O)Nc1cc2c(c(N)n1)N=C(CN(C)c1ccccc1)CN2, which T/C [1] is on record?
A: Its T/C is 88 % of control.

Q: And the T/C [2]?
A: The T/C was 63 % of control and 68 % of control.

Q: What does the source list for O=C1N(CC2CO2)CCN1CC1CO1 (stereo not given)?
A: T/C (dose: 25.0 mg/kg/injection, schedule: Q07DX002 (ip), vehicle: saline): 39 % of control; T/C [3]: 26 % of control; T/C [4]: 41 % of control; T/C [5]: 41 % of control; T/C [6]: 29 % of control

Q: With ClC1=C(Cl)C(Cl)=C(Cl)C1=Cc1ccccc1 as the molecule, how does the T/C (dose: 0.78 mg/kg/injection, schedule: Q07DX002 (ip), vehicle: saline with Tween-80) read?
A: Its T/C is 119 % of control.

Q: And the T/C (dose: 1.56 mg/kg/injection, schedule: Q07DX002 (ip), vehicle: saline with Tween-80)?
A: The T/C was 95 % of control.

Q: And the T/C (dose: 6.25 mg/kg/injection, schedule: Q07DX002 (ip), vehicle: saline with Tween-80)?
A: Its T/C is 114 % of control.

Q: And the T/C (dose: 12.5 mg/kg/injection, schedule: Q07DX002 (ip), vehicle: saline with Tween-80)?
A: The T/C was 114 % of control.

Q: What about the T/C (dose: 25.0 mg/kg/injection, schedule: Q07DX002 (ip), vehicle: saline with Tween-80) of the same molecule?
A: The T/C was 58 % of control.

Q: Which results are given for COC(=O)C(N)Cc1ccc(O)c(O)c1 (stereo not given)?
A: T/C [3]: 85 % of control; T/C [4]: 113 % of control; T/C [5]: 88 % of control; T/C [6]: 99 % of control; T/C (dose: 800.0 mg/kg/injection, schedule: Q07DX002 (ip), vehicle: saline): 110 % of control; T/C (dose: 1600.0 mg/kg/injection, schedule: Q07DX002 (ip), vehicle: saline): 51 % of control

Q: For COc1ccc2[nH]c3ccc4cc[n+](CCN5CCC(C6CCN(CC[n+]7ccc8ccc9[nH]c%10ccc(OC)cc%10c9c8c7)CC6)CC5)cc4c3c2c1, which T/C [1] is on record?
A: The T/C was 79 % of control.

Q: And the T/C [2]?
A: The T/C was 70 % of control.

Q: And the T/C [7]?
A: The T/C was 56 % of control.

Q: For CN(C)/N=N/c1nc[nH]c1C(N)=O, which T/C (dose: 12.5 mg/kg/injection, schedule: Q07DX002 (ip), vehicle: Klucel (hydroxypropylcellulose) (HPC)) is on record?
A: Its T/C is 28 % of control.

Q: What about the T/C [1] of the same molecule?
A: The T/C was 64 % of control.

Q: And the T/C (dose: 25.0 mg/kg/injection, schedule: Q07DX003 (ip), vehicle: Klucel (hydroxypropylcellulose) (HPC))?
A: Its T/C is 75 % of control.

Q: What about the T/C (dose: 25.0 mg/kg/injection, schedule: Q07DX003 (ip), vehicle: carboxymethylcellulose (CMC)) of the same molecule?
A: Its T/C is 37 % of control.

Q: What about the T/C [2] of the same molecule?
A: Its T/C is 40 % of control.

Q: What about the T/C (dose: 50.0 mg/kg/injection, schedule: Q07DX003 (ip), vehicle: Klucel (hydroxypropylcellulose) (HPC)) of the same molecule?
A: Its T/C is 43 % of control.

Q: What about the T/C (dose: 50.0 mg/kg/injection, schedule: Q07DX003 (ip), vehicle: carboxymethylcellulose (CMC)) of the same molecule?
A: Its T/C is 28 % of control.

Q: What about the T/C [7] of the same molecule?
A: The T/C was 74 % of control and 75 % of control.

Q: And the T/C (dose: 100.0 mg/kg/injection, schedule: Q07DX003 (ip), vehicle: Klucel (hydroxypropylcellulose) (HPC))?
A: The T/C was 85 % of control.

Q: What about the T/C (dose: 100.0 mg/kg/injection, schedule: Q07DX003 (ip), vehicle: carboxymethylcellulose (CMC)) of the same molecule?
A: The T/C was 16 % of control.

Q: And the T/C [8]?
A: The T/C was 12 % of control and 28 % of control.

Q: What about the T/C (dose: 200.0 mg/kg/injection, schedule: Q07DX003 (ip), vehicle: Klucel (hydroxypropylcellulose) (HPC)) of the same molecule?
A: The T/C was 9 % of control.

Q: And the T/C (dose: 200.0 mg/kg/injection, schedule: Q07DX003 (ip), vehicle: carboxymethylcellulose (CMC))?
A: The T/C was 16 % of control.

Q: What about the T/C (dose: 400.0 mg/kg/injection, schedule: Q07DX002 (ip), vehicle: Klucel (hydroxypropylcellulose) (HPC)) of the same molecule?
A: Its T/C is 13 % of control and 33 % of control.

Q: And the T/C (dose: 400.0 mg/kg/injection, schedule: Q07DX003 (ip), vehicle: Klucel (hydroxypropylcellulose) (HPC))?
A: The T/C was 44 % of control.

Q: Which results are given for O=C([CH-]C(=O)C(F)(F)F)c1ccccc1.O=C([CH-]C(=O)C(F)(F)F)c1ccccc1.O=C([CH-]C(=O)C(F)(F)F)c1ccccc1.O=C([CH-]C(=O)C(F)(F)F)c1ccccc1.[Eu+3].c1ccncc1?
A: T/C [1]: 91 % of control; T/C [2]: 88 % of control; T/C [7]: 76 % of control and 82 % of control; T/C [8]: 79 % of control and 88 % of control
